Test: excess molar enthalpy (molar enthalpy of mixing); xn = mol fraction of the nth substance listed
Conditions: 298.15 K, 101 kPa, Liquid, Calvet calorimetry

CCCCCCCCC [nonane] + CCCO
Conditions | excess molar enthalpy [kcal/mol]
x2 = 0.0794 | 0.118
x2 = 0.1401 | 0.144
x2 = 0.2595 | 0.17
x2 = 0.3588 | 0.174
x2 = 0.441 | 0.173
x2 = 0.5192 | 0.165
x2 = 0.5829 | 0.154
x2 = 0.7046 | 0.129
x2 = 0.7517 | 0.117
x2 = 0.7992 | 0.1
x2 = 0.8361 | 0.086
x2 = 0.878 | 0.0674
x2 = 0.911 | 0.0521
x2 = 0.9469 | 0.0332
x2 = 0.9689 | 0.0206

From the NIST ThermoML archive (doi:10.1021/je8007606)
